Like-named read-outs stand apart in the source and are kept apart here.

Common to all, as to experiment: PTP IC50 assay, pNPP or FDP as substrate
Holding throughout (format): biochemical

The target of one experiment is T1, PTP SHP2 (Homo sapiens, UniProt Q06124).
T1 construct: The catalytic domain was amplified using the following oligonucleotides; made in house; host or cells: Sf-9 insect cells (pFastBac-G2T)
T1 sequence (Q06124 247-517 limits assumed): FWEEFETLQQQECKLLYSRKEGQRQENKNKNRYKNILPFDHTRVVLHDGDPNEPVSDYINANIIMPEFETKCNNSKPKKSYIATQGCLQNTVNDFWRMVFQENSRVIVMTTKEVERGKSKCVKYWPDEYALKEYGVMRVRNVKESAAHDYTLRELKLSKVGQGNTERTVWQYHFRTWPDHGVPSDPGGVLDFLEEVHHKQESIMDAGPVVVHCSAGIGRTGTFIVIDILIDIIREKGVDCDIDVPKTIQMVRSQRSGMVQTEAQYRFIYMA
The procedure:
(§1) The following in vitro assay procedure is preferred to determine the level of activity and effect of the different compounds of the present invention on one or more of the PTPs. Similar assays can be designed along the same lines for any PTP using techniques well known in the art.
(§2) The catalytic assays described herein are performed in a 96-well format. The general procedure begins with the determination of PTP optimal pH using a three-component buffer system that minimizes ionic strength variations across a wide range of buffer pH. Next, the Michaelis-Menten constant, or Km, is determined for each specific substrate-PTP system. This Km value is subsequently used as the substrate reaction concentration for compound screening. Finally, the test PTP is exposed to varying concentrations of compound for fifteen minutes and allowed to react with substrate for ten minutes. The results are plotted as percent inhibition versus compound concentration and the IC50 interpolated from the plot.
(§3) All assays were performed using pNPP or FDP as substrate. The optimum pH was determined for each PTP used.
(§4) PTPase activity was assayed at 25° C. in a 100-μl reaction mixture containing an appropriate concentration of pNPP or FDP as substrate. The reaction was initiated by addition of the PTP and quenched after 10 min by addition of 50 μl of IN NaOH. The non-enzymatic hydrolysis of the substrate was corrected by measuring the control without the addition of the enzyme. The amount of p-nitrophenol produced was determined from the absorbance at 410 nm. To determine the kinetic parameter, Km, the initial velocities were measured at various substrate concentrations and the data were fitted to the Michaelis equation where velocity=(Vmax*[S])/(Km+[S]), and [S]=substrate reaction concentration.
(§5) The effect of the compounds on PTP was evaluated at 25° C. using pNPP or FDP as substrate. PTP was pre-incubated for fifteen minutes with various concentrations of compound. Substrate was then added at a fixed concentration (usually equal to the Km previously calculated). After 10 minutes, NaOH was added to stop the reaction. The hydrolysis of pNPP was followed at 410 nm on the Biotek Powerwave 200 microplate scanning spectrophotometer. The percent inhibition was calculated as follows: Percent Inhibition=[(control signal−compound signal)/control signal] ×100%. The IC50 was then determined by interpolation of a percent inhibition versus compound concentration plot.
(§6) Plasmids designed for bacterial GST-PTP fusion protein expression were derived by insertion of PCR-generated human PTP fragments into pGEX vectors (Pharmacia Biotech). Several of these constructs were then used to subclone phosphatases into pFastBac-1for expression in Sf-9 insect cells. Oligonucleotides used for the initial amplification of PTP genes are shown below. The cDNAs were prepared using the Gilbo BRL superscript preamplification system on RNAs purchased from Clontech.
SHP-2 cDNA was used as described earlier (Vogel W., et al.,1993, Science, 259:1611-4). The catalytic domain was amplified using the following oligonucleotides 5′oligo: 5′-[…]-3′ (SEQ ID NO: 2) 3′oligo: 5′-[…]-3′ (SEQ ID NO: 3) and subsequently subcloned into BamH1-Xba-1 sites. It was then ligated into pfas Bac-G2T BamH1-Xba-1 sites.

The target in a further experiment is T2, PTP EPSILON (Homo sapiens, UniProt P23469).
T2 construct: made in house; host or cells: Sf-9 insect cells (pFastBac-G2T); a pGEX 6P-1 construct also existed
As to the method: as §1, §2, §3, §4, §5, §6
The PTPepsilon cDNA was amplified from human placenta single-strand cDNA (Clontech RNA) using the following oligonucleotides: 5′oligo: 5′-[…]-3′ (SEQ ID NO: 6) 3′oligo: 5′-[…]-3′ (SEQ ID NO: 7) After cloning this PCR product into the Bam HI/Xho I sites of pGEX 6P-1, this phosphatase was subcloned using the same restriction sites in pFastBac-G2T.

Another experiment deals with T3, PTP MEG2 (Homo sapiens, UniProt P43378).
T3 construct: made in house; host or cells: E. coli BL-21 (pGEX 6P-1)
T3 sequence (P43378 262-593 limits assumed): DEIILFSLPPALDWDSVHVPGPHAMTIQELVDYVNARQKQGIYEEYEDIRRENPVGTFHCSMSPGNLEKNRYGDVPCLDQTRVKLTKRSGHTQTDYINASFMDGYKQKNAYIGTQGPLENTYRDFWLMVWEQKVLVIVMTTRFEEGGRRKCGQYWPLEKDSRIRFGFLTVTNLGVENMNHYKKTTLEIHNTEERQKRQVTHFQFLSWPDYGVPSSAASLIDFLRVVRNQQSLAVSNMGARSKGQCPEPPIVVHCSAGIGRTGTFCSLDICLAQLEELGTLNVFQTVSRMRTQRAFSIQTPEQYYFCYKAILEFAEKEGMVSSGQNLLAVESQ
The procedure: as §1, §2, §3, §4, §5, §6
The PTP MEG2 cDNA was amplified from human placenta single strand cDNA (Clontech RNA) using the following oligonucleotides: 5′oligo: 5′-[…]-3′ (SEQ ID NO: 8) 3′oligo: 5′-[…]-3′ (SEQ ID NO: 9) and subsequently ligated into pGex 6P-1 Eco RI/Xho I sites.

Setting [1] is: pNPP or FDP as substrate, 25° C., read-out: PTP IC50 SHP2.
The mark [2] stands for this setting: pNPP or FDP as substrate, 25° C., read-out: PTP IC50 Epilson.
[3] abbreviates: pNPP or FDP as substrate, 25° C., read-out: PTP IC50 MEG2.

T2 sequence (P23469 80-393 limits assumed): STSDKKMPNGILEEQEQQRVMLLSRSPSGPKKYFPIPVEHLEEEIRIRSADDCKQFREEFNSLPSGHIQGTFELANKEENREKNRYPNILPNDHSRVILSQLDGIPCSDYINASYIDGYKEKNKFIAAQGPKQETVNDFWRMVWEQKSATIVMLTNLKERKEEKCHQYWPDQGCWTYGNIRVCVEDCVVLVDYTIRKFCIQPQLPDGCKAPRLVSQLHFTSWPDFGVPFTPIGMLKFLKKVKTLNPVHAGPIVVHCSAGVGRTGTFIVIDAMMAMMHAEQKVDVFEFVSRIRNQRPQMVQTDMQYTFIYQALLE

The term IC50 denotes the concentration at which inhibition is half-maximal. Regarding “1-(4-Aminophenoxy)-4-trifluoromethylsulfonamidophenoxy benzene [Example 72]”, the IC50 was 17 µM on PTP SHP2 (setting [1]), 48.3 µM on PTP EPSILON (setting [2]) and greater than 100 µM at PTP MEG2 (setting [3]).
For `O=[N+]([O-])c1cc(S(=O)(=O)C(F)(F)F)ccc1OC1CCC(Oc2ccc(S(=O)(=O)C(F)(F)F)cc2[N+](=O)[O-])C1` (mixture of isomers) [Example 12, 1,3-Bis-(2-nitro-4-trifluoromethanesulfonyl-phenoxy)-cyclopentane] the same measures were 79.8 µM, greater than 100 µM and greater than 100 µM.
In the case of `CS(=O)(=O)Nc1ccc(Oc2ccc(Oc3ccc(NS(C)(=O)=O)cc3)cc2)cc1` [CH3SO2NH—], the IC50 at PTP SHP2 (comparison of R groups, read-out: IC50 SHP2) was 33.6 µM; on PTP EPSILON (comparison of R groups, read-out: IC50 Epsilon), 51.4 µM; on PTP MEG2 (comparison of R groups, read-out: IC50 MEG2), greater than 100 µM.
Consider `O=[N+]([O-])c1cc(S(=O)(=O)C(F)(F)F)ccc1SSc1ccc(S(=O)(=O)C(F)(F)F)cc1[N+](=O)[O-]` [Example 8, Bis-(2-nitro-4-trifluoromethylsulfonylphenyl) disulfide], for which the results for the IC50 at PTP SHP2 (setting [1]), on PTP EPSILON (setting [2]) and at PTP MEG2 (setting [3]) were 37 µM, 53.7 µM and greater than 100 µM, respectively.
The matching figures for `COC(=O)c1cc(Oc2ccc(S(=O)(=O)C(F)(F)F)cc2)cc(Oc2ccc(S(=O)(=O)C(F)(F)F)cc2)c1` [Example 9, 3,5-Bis-(4-trifluoromethanesulfonyl-phenoxy)-benzoic acid methyl ester]: greater than 100 µM, greater than 100 µM and greater than 100 µM.
The matching figures for `COC(=O)Cc1cc(Oc2ccc(S(=O)(=O)C(F)(F)F)cc2[N+](=O)[O-])cc(Oc2ccc(S(=O)(=O)C(F)(F)F)cc2[N+](=O)[O-])c1` [Example 10, [3,5-Bis-(2-nitro-4-trifluoromethanesulfonyl-phenoxy)-phenyl]-acetic acid methyl ester]: greater than 100 µM, 60.8 µM and greater than 100 µM.
Consider `COC(=O)c1cc(Oc2ccc(S(=O)(=O)C(F)(F)F)cc2[N+](=O)[O-])cc(Oc2ccc(S(=O)(=O)C(F)(F)F)cc2[N+](=O)[O-])c1` [Example 11, 3,5-Bis-(2-nitro-4-trifluoromethanesulfonyl-phenoxy)-benzoic acid methyl ester], for which the IC50 at PTP SHP2 (setting [1]) is greater than 100 µM; at PTP EPSILON (setting [2]), 38.7 µM; at PTP MEG2 (setting [3]), greater than 100 µM.
For the compound `COC(=O)c1c(Oc2ccc(S(=O)(=O)C(F)(F)F)cc2[N+](=O)[O-])cc(C)cc1Oc1ccc(S(=O)(=O)C(F)(F)F)cc1[N+](=O)[O-]` [Example 13, 4-Methyl-2,6-bis-(2-nitro-4-trifluoromethanesulfonyl-phenoxy)-benzoic acid methyl ester], the half-maximal inhibitory concentration (IC50) on PTP SHP2 (setting [1]) is greater than 100 µM; at PTP EPSILON (setting [2]), 80.4 µM; at PTP MEG2 (setting [3]), greater than 100 µM.
Take `COC(=O)c1ccc(OCCOc2ccc(S(=O)(=O)C(F)(F)F)cc2[N+](=O)[O-])cc1` [Example 14, 4-[2-(2-nitro-4-trifluoromethanesulfonyl-phenoxy)-ethoxy]-benzoic acid methyl ester]: the concentration for half-maximal inhibition (IC50) at PTP SHP2 (setting [1]), on PTP EPSILON (setting [2]) and on PTP MEG2 (setting [3]) was greater than 100 µM throughout.
For the compound `O=C(O)c1ccc(Oc2cccc(Oc3ccc(S(=O)(=O)C(F)(F)F)cc3[N+](=O)[O-])c2)cc1` [Example 15, 4-[3-(2-Nitro-4-trifluoromethanesulfonyl-phenoxy)-phenoxy]-benzoic acid], the IC50 on PTP SHP2 (setting [1]) stood at 10.7 µM; at PTP EPSILON (setting [2]) it was 10 µM; on PTP MEG2 (setting [3]), 21.1 µM.
For `COC(=O)c1cc(Oc2ccc(S(=O)(=O)C(F)(F)F)cc2[N+](=O)[O-])n(-c2cc(C(F)(F)F)cc(C(F)(F)F)c2)n1` [Example 16, 1-(3,5-Bis-trifluoromethyl-phenyl)-5-(2-nitro-4-trifluoromethanesulfonyl-phenoxy)-1H-pyrazole-3-carboxylic acid methyl ester] the same measures were greater than 100 µM, 64.7 µM and 79.5 µM.

These data come from US6596772B1, “Phosphate mimics and methods of treatment using phosphatase inhibitors” (Sugen, Inc., priority 1999, dated 2003).
